Key:
Format in all cases: in vivo
Avena fatua (AVEFA) = assay: Pre-emergence herbicidal action against AVEFA; conditions: visual scoring after about 3 weeks vs untreated controls
Method in brief: (§1)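 Pre-emergence soil-surface spray, WP/EC formulation, 0.5% additive, 600 l/ha water, rates of 320 g/ha or lower. Greenhouse, ~3 wk. Visual score, % of untreated control (100% = plants dead, 0% = like control).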

[1] = system: Echinochloa crus-galli (ECHCG); assay: Pre-emergence herbicidal action against ECHCG
Method in brief: as §1

Setaria viridis (SETVI) [2] = assay: Pre-emergence herbicidal action against SETVI
Method in brief: as §1

[3] = system: Verconica persica (VERPE); assay: Pre-emergence herbicidal action against VERPE
Method in brief: as §1

Viola tricolor (VIOTR) [4] = assay: Pre-emergence herbicidal action against VIOTR
Method in brief: as §1

[5] = system: Echinochloa crus-galli (ECHCG); assay: Post-emergence herbicidal action against ECHCG
Method in brief: (§2)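 Greenhouse plants sprayed at the one-leaf stage, 2–3 weeks after sowing, with WP or EC formulations plus 0.5% additive at 600 l/ha water. Activity rated visually after about 3 weeks versus untreated controls (100% = dead, 0% = like control), at 320 g/ha or lower.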

[6] = system: Pharbitis purpurea (PHBPU); assay: Post-emergence herbicidal action against PHBPU
Method in brief: as §2

Setaria viridis (SETVI) [7] = assay: Post-emergence herbicidal action against SETVI
Method in brief: as §2

[8] = system: Verconica persica (VERPE); assay: Post-emergence herbicidal action against VERPE
Method in brief: as §2

Viola tricolor (VIOTR) [9] = assay: Post-emergence herbicidal action against VIOTR
Method in brief: as §2

Compound	Pre-emergence action against AVEFA in % (Avena fatua (AVEFA); 320 g/ha)	Pre-emergence action against ECHCG in % ([1]; dosage 80 g/ha)	Pre-emergence action against ECHCG in % ([1]; dosage 320 g/ha)	Pre-emergence action against SETVI in % (Setaria viridis (SETVI) [2]; dosage 80 g/ha)	Pre-emergence action against SETVI in % (Setaria viridis (SETVI) [2]; dosage 320 g/ha)	Pre-emergence action against VERPE in % ([3]; dosage 320 g/ha)	Pre-emergence action against VIOTR in % (Viola tricolor (VIOTR) [4]; 320 g/ha, Viola tricolor)	Pre-emergence action against VIOTR in % (Viola tricolor (VIOTR) [4]; dosage 80 g/ha)	Post-emergence action against ECHCG in % ([5]; dosage 80 g/ha)	Post-emergence action against ECHCG in % ([5]; dosage 320 g/ha)	Post-emergence action against PHBPU in % ([6]; dosage 320 g/ha)	Post-emergence action against SETVI in % (Setaria viridis (SETVI) [7]; dosage 80 g/ha)	Post-emergence action against SETVI in % (Setaria viridis (SETVI) [7]; dosage 320 g/ha)	Post-emergence action against VERPE in % ([8]; 320 g/ha, VERPE)	Post-emergence action against VERPE in % ([8]; dosage 80 g/ha)	Post-emergence action against VIOTR in % (Viola tricolor (VIOTR) [9]; 80 g/ha)	Post-emergence action against VIOTR in % (Viola tricolor (VIOTR) [9]; 320 g/ha)	Pre-emergence action against AVEFA in % (Avena fatua (AVEFA); 80 g/ha)	Pre-emergence action against VERPE in % ([3]; dosage 80 g/ha)	Post-emergence action against PHBPU in % ([6]; dosage 80 g/ha)
O=C(O)COc1nn(-c2ccccn2)c(-c2cncnc2)c1Br [Example I-66]	90%	80%	100%	100%	100%	100%	100%	90%	80%	90%	80%	80%	90%	90%	90%	80%	90%			
COC(=O)[C@@H](C)Oc1nn(-c2ncccc2F)c(-c2ccc(F)nc2)c1C1CC1 [Example I-307]	100%	100%	100%	100%	100%	100%	100%	100%	90%	90%	90%	90%	90%	90%	90%	80%	90%	90%	90%	80%
COC(=O)C(C)COC(=O)C(C)Oc1nn(-c2ccccn2)c(-c2ccc(F)nc2)c1Cl (stereo not shown) [Example I-291]	90%		90%	90%	90%	80%	100%	90%	80%	80%	90%	80%	80%	80%		80%	80%	80%		80%
COC(=O)[C@@H](C)Oc1nn(-c2ccccn2)c(-c2cncc(F)c2)c1Cl [Example I-189]	90%	90%	100%	100%	100%	100%	100%	100%	90%	90%	90%	90%	90%	90%	90%	90%	90%	90%	90%	90%
C[C@@H](Oc1nn(-c2ncccc2F)c(-c2ccc(F)nc2)c1C1CC1)C(=O)O [Example I-342]	100%	100%	100%	90%	100%	100%	100%	100%	90%	90%	90%	90%	90%	90%	90%	90%	90%	90%	90%	80%

Reference: US20240041042A1, “1-(PYRIDYL)-5-AZINYLPYRAZOLE DERIVATIVES, AND THEIR USE FOR CONTROL OF UNDESIRED PLANT GROWTH” (Bayer Aktiengesellschaft, priority 2020, published 2024)
